We go through one compound from patent publication US7470821B2, “Aldolase-inhibiting aromatic compounds” (Valorisation-Recherche, Limited Partnership, priority 2003, dated 2008).

One assay has as its target T1, K146M mutant RM aldolase (Oryctolagus cuniculus, UniProt P00883, K147M).
T1 construct: made in house
T1 sequence (P00883 1-364 K147M): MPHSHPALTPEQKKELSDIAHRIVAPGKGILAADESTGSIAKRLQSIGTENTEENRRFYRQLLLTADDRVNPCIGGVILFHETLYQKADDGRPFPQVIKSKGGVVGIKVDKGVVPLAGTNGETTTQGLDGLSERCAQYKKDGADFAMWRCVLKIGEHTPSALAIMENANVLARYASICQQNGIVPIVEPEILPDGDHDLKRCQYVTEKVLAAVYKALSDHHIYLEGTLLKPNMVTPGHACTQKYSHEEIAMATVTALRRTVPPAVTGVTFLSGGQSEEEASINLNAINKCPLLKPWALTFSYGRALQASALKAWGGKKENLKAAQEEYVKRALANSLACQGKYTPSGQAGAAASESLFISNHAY
Put plainly: UV-visible differential spectroscopy (method A) with mutated aldolase K146M. It counts as binding, rabbit. Particulars: FHN-P 300 μM; for kapp: 431 nm. Here is the method: For method A, absorption spectra are recorded as a function of time, between 250 and 500 nm, or at wavelengths corresponding to maximum or minimum absorption. Measurements are begun by adding FHN-P at varying final concentrations (0.1-1 mM) in the TEA buffer containing a fixed concentration of aldolase (10 μM of subunits). Measured absorption spectra for the enzyme complex are corrected using the absorbance of the buffer, the FHN—P, and the enzyme (measured separately). The differential absorption spectra thus obtained are used to calculate the value of the constants that define the formation of the aldolase-inhibitor complex.
Every UV-visible differential test spectroscopy test using mutated aldolases (10 μM of subunits) is carried out using method A. • Monitored by Electrospray Ionization Mass Spectrometry (ESI-MS).
Residues of lysine 106, 146 and 229 residues are located at the active aldolase sites and thus are candidates for causing inactivation by forming a Schiff base with the FHN-P. In order to identify which lysine is responsible for the differential absorbances in the presence of FHN-P, sporadic mutations of these lysine residues were created and named: K107M (Research Collaboratory for Structural Bioinformatics Protein Databank), K146M (Blonski C. et al., 1997, Biochem. J. 323:71-77) and […] (Research Collaboratory for Structural Bioinformatics Protein Databank). […] UV-visible differential spectroscopy (method A) was used to examine formation of the enzyme complex for each sporadic mutation in the presence of a fixed concentration of FHN-P (300 μM).

Assay [1] has as its target T2, native aldolase from rabbit muscle (RM) (Oryctolagus cuniculus, UniProt P00883).
T2 construct: made in house
T2 sequence (P00883 1-364): T1 sequence (P00883 1-364 K147M) with M147K
As to the kind of experiment: Aldolase activity by coupled enzyme test (TIM/GDH), inactivation and reactivation kinetics. Particulars: for Specific activity: RM 0.2 mg/mL. It counts as biochemical. Here is the method:
Aldolase activity was measured using a coupled enzyme test system: the triose-phosphate isomerase and glycerol-3-phosphate deshydrogenase (TIM/GDH) system, following oxidation of the NADH (Boehringer-Mannheim, France) at 340 nm, by means of a SAFAS spectrophotometer preheated to 25° C. Testing began with the addition of the substrate (Fru(1.6)P2; […] in final concentration), to complete an aldolase solution created in a triethanolamine buffer (TEA buffer) (100 Mm TEA/HCl; 50 mM NaCl; 1 mM EDTA, pH 7.6; ionic strength 0.15), 0.42 mM of NADH, and containing both enzyme systems (10 μg/mL of GDH and 1 μg/mL of TIM) for a final volume of 1 mL. The construction, overexpression and purification of recombinant aldolase were carried out in accordance with Morris A. J. et al., 1993 (J. Biol. Chem., 265:1095-1100) and Berthiaume L. et al., 1993 (J. Biol. Chem., 268:10826-10835).
The substrate cleavage rate was determined by measuring the decrease in absorbance/minute at 340 nm. The aldolase was dialyzed overnight at 4° C. against a TEA buffer prior to use. The protein concentration was determined by spectrophotometry, using ε280=0.91 mL.mg^−1.cm^−1 as an extinction coefficient. Subunit concentration was determined on the basis of a molecular weight of 159,000 for an aldolase tetramer. • Kinetic Method:
In the extreme situation where k−2 approaches zero, a reversible slow-binding inhibitor may resemble an irreversible one directed toward the active site. In this situation, the equation eqn.(3) is used for this type of inhibition (Meloche H. P., 1967, Biochemistry, 6:2273-2280). The semi-inactivation time of the enzyme (t1/2) is defined as a function of the mutual inhibitor concentration and is graphically represented by a straight line crossing the Y-axis at […] and crossing the X-axis at −1/Ki. • Experimental Protocol:
Native aldolase (5 μM of subunits) is incubated in the presence of FHN-P (0.05-1 mM) in TEA buffer. Enzyme activity is analyzed as a function of time using 10 μl aliquot portions.
Inactivation kinetics follow pseudo-first-order kinetics, and kinetic parameters Ki and k2 are determined by using the equation eqn.(3). To determine the reactivation rate, aldolase (25 μM of subunits in the TEA buffer) is incubated with 500 μM of FHN-P until reaching 90% inactivation. Excess inhibitor is removed by ultrafiltration with a PM-30 Millipore membrane. The enzyme-inhibitor complex is incubated in the TEA buffer (15 μM of subunits at final concentration) containing hexitol-P2 (10 mM). Aliquot portions (10 μl) are removed at different times to measure aldolase activity.
Controls involve repeating the protocol without FHN-P. The reactivation process is analyzed as if it were a first-order reaction. • Monitored by UV-Visible Differential Spectroscopy.

Changes are numbered by the printed parent chain. Where two headings read alike, the source gives them in different places.

In the case of `O=Cc1c(O)ccc2cc(OP(=O)(O)O)ccc12` [FHN-P, 5-formyl-6-hydroxy-2-naphthylphosphate], the Residual specific activity result on K146M mutant RM aldolase is listed as “ud”. The “ΔA relative to 432 nm” value is listed as 98% at K146M mutant RM aldolase (first phase) and 25% at K146M mutant RM aldolase (second (slow) phase). Further, the figures for the kapp on K146M mutant RM aldolase (first phase (associated with inhibition)) and at K146M mutant RM aldolase (second (slow) phase) were 0.005 ± 0.0005 min⁻¹ and 0.0015 ± 0.0003 min⁻¹, respectively. In addition, the Specific activity in assay [1] (FHN-P 250 μM with Fru(1,6)P2 (1 mM), 80 min incubation) is on record as 5.2 ± 0.4 Unit/mg; in assay [1] (FHN-P 250 μM with hexitol-P2, 80 min incubation), 9.9 ± 0.5 Unit/mg; in assay [1] (compound 250 μM, TEA buffer pH 7.6, 80 min incubation, RM alone 12.5 ± 0.5) it was 2.8 ± 0.3 Unit/mg. In addition, the Ki in assay [1] (dissociation constant of rapidly formed EI complex, from kapp at 0.01-1.5 mM inhibitor, eqn.(3), read-out: Ki) is 250 ± 100 µM; in assay [1] (estimated from the values of Table 2, read-out: global dissociation constant Ki*) it was 0.04 ± 0.02 µM. In assay [1] (inactivation constant, enzyme activity kinetics), the k2 was 0.07 ± 0.01 min⁻¹.
